How the values were obtained:
Assay type in all cases: cell-based
PMA = assay: SRE-luciferase antagonist assay, induction by PMA; settings: Swiss-3T3, SWISS3T3 cells, 5 hours, approximate
PDGF = assay: SRE-luciferase antagonist assay, induction by PDGF; settings: Swiss-3T3, SWISS3T3 cells, 5 hours, approximate
From the text: (§1) Initial characterization of NNC92-0270 as a non-peptide PDGF antagonist was made possible through an SRE-Luciferase high through-put assay system which involves selection of substances that are able to block expression of a serum response element (SRE)-luciferase reporter gene expressed in SWISS3T3 cells. […] The degree of antagonist specificity can be determined by comparing the resultant signal for the three growth factors (PDGF, bFGF and EGF). […]
(§2) Following induction, luciferase activity was measured using a Promega luciferase assay kit (E1500; Promega Corp., Madison, Wis.) according to the assay kit protocol. […] The amount of luminescence (relative light units, RLU) was determined following a 1 second mix and a 1-3 integration of signal. Basal (uninduced) luciferase signal was subtracted from all measurements, and the luciferase signal induced by test samples was expressed as a percentage of the signal in the control. […]

EGF = assay: SRE-luciferase antagonist assay, induction by EGF; settings: SWISS3T3 cells, 5 hours
From the text: as §1, §2

[1] = test system: baboon smooth muscle cells; assay: Inhibition of PDGF-BB mitogenic activity on baboon smooth muscle cells ([3H] thymidine incorporation); settings: for 3H Thymidine (CPM Incorporated), (-) Heparin: no heparin, control 1701
Procedure: NNC92-0270 was analyzed for the ability to inhibit the mitogenic activity of PDGF on baboon smooth muscle cells. All mitogenesis assays performed on baboon vascular smooth muscle cells (BVSMCs) were done on primary cultures of cells between passages 13 and 20 in culture. The initial cultures were established from outgrowth of aortic tissue explants. Baboon smooth muscle cells were plated at approximately 20,000 cells per well, in DMEM supplemented with 10% fetal calf serum, into 24-well culture dishes. One day prior to use the culture media was removed, and 1 ml of Mito Media (Table 5) was added to each well to allow the cells to become quiescent. At the time of the experiment the cells were stimulated with PDGF-BB. […] 20× stock solutions were made for each of the PDGF concentrations by dilution in 10 mM acetic acid containing 0.25% albumin, and 50 ul PDGF or dilution vehicle alone was added to the culture wells.
To analyze the activity of NNC92-0270 to neutralize PDGF-BB mitogenic activity, 1 ng/ml of PDGF was added to wells along with dilutions of NNC92-0270. The cells were incubated with the test samples for approximately 20 hours at 37 ° C. Fifty microliters of a 20× stock solution of [3H] Thymidine was then added to each well to give a final concentration of 1 μCi/ml. The cells were incubated for 4 hours at 37 ° C., washed with PBS, then harvested with trypsin and counted for [^3 H] thymidine incorporation in a Wallac (Turku, Finland) Betaplate™ liquid scintillation counter.
NNC92-0270 was incubated with 1 ng/ml of PDGF-BB in the presence of 0.5 U/ml of unfractionated heparin. The cells were pulse labeled with [^3 H] thymidine as described above and the level of [^3 H] thymidine determined.

bFGF = assay: SRE-luciferase antagonist assay, induction by bFGF; settings: Swiss-3T3, SWISS3T3 cells, 5 hours, approximate
From the text: as §1, §2

**Q.** O=C(NN1CCCCC1)NS(=O)(=O)c1ccc(CCNC(=O)c2[nH]c3ccccc3c2OCc2ccccc2)cc1 [NNC92-0270] was tested. Which IC50 (PMA) did it give?
**A.** The IC50 was greater than 100 µM.

**Q.** And the IC50 (PDGF)?
**A.** Its IC50 is 13 µM.

**Q.** What about the “Induction of SRE-luciferase, EGF IC50” value (EGF) of the same compound?
**A.** The value was “No activity”.

**Q.** What about the “3H Thymidine (CPM Incorporated), (+) 0.5 U/ml Heparin” value (from here on “3H Thymidine … (+) 0.5 U/ml Heparin”) ([1]; 6.2 μM with 1 ng/ml PDGF-BB and 0.5 U/ml heparin) of the same compound?
**A.** The value was 1007 CPM.

**Q.** What about the “3H Thymidine (CPM Incorporated), (-) Heparin” value (“3H Thymidine … (-) Heparin” for short) ([1]; 6.2 μM with 1 ng/ml PDGF-BB) of the same compound?
**A.** Its value is 1378 CPM.

**Q.** What about the “3H Thymidine … (+) 0.5 U/ml Heparin” value ([1]; 12.5 μM with 1 ng/ml PDGF-BB and 0.5 U/ml heparin) of the same compound?
**A.** The value was 586 CPM.

**Q.** What about the “3H Thymidine … (-) Heparin” value ([1]; 12.5 μM with 1 ng/ml PDGF-BB) of the same compound?
**A.** The value was 870 CPM.

**Q.** And the “3H Thymidine … (+) 0.5 U/ml Heparin” value ([1]; 25 μM with 1 ng/ml PDGF-BB and 0.5 U/ml heparin)?
**A.** Its value is 220 CPM.

**Q.** What about the “3H Thymidine … (-) Heparin” value ([1]; 25 μM with 1 ng/ml PDGF-BB) of the same compound?
**A.** Its value is 334 CPM.

**Q.** What about the “3H Thymidine … (+) 0.5 U/ml Heparin” value ([1]; 50 μM with 1 ng/ml PDGF-BB and 0.5 U/ml heparin) of the same compound?
**A.** Its value is 211 CPM.

**Q.** And the “3H Thymidine … (-) Heparin” value ([1]; 50 μM with 1 ng/ml PDGF-BB)?
**A.** Its value is 309 CPM.

**Q.** And the “Effect of adding heparin to the compound on [3H] thymidine incorporation (in words)” value ([1]; 0.5 U/ml unfractionated heparin, 1 ng/ml PDGF-BB)?
**A.** Its value is “further inhibition”.

**Q.** And the IC50 ([1]; Papio anubis, 20 h, read-out: ED50 for the inhibition of PDGF-BB mitogenic activity)?
**A.** Its IC50 is roughly 12.5 µM.

**Q.** What about the IC50 (bFGF) of the same compound?
**A.** Its IC50 is greater than 100 µM.

Reference: patent publication US5731326A, “PDGF antagonists II” (ZymoGenetics, Inc., priority 1996, dated 1998)
